Columns and labels:
[1] = Chemical stability in PBS buffer at pH 11.1 assessed as compound hydrolysis at 20 mM measured upto 8 hrs by RP-HPLC analysis; assay type: physicochemical; conditions: pH 11.1, 8 h, 20000 µM
[2] = Chemical stability in PBS buffer at pH 4.8 assessed as compound hydrolysis at 20 mM measured after 7 hrs by RP-HPLC analysis; assay type: physicochemical; conditions: read-out: Drug degradation
[3] = Chemical stability in human serum assessed as compound hydrolysis at 20 mM measured upto 8 hrs by RP-HPLC analysis; assay type: physicochemical, cell-free; conditions: 20000 µM
[4] = Chemical stability in PBS buffer at pH 6.8 assessed as compound hydrolysis at 20 mM measured after 7 hrs by RP-HPLC analysis; assay type: physicochemical; conditions: read-out: Drug degradation

Stability [1]: Stable
degraded at 7 h, 20000 µM [2]: 50%
Stability [3]: Unstable
degraded at 7 h, 20000 µM [4]: 40%
Structure (SMILES): CCN(CC)CC.O=c1[nH]c(OP(=O)(O)Oc2ccccc2)nc2c1ncn2[C@@H]1O[C@H](CO)[C@@H](O)[C@H]1O
